Assay results published in patent publication US12644840B2, “Pathogenic susceptibility assessment based on autofluoresence” (Adiuvo D[…] Limited, priority 2021, dated 2026).

Tests used:
[1] = test system: Mycobacterium tuberculosis; experiment: Autofluorescence-based susceptibility testing of positive sputum samples; format: cell-based
Pseudomonas aeruginosa = conditions: concentration added to sensitive and resistant strain wells; imaged at 0th and 4th hour; cited from earlier work

Compound | MIC [1] [mg/L] | Minimum Inhibitory Concentration (MIC) Value (Pseudomonas aeruginosa) [mg/L]
NC[C@H]1O[C@H](O[C@H]2[C@H](O)[C@@H](O[C@H]3O[C@H](CO)[C@@H](O)[C@H](N)[C@H]3O)[C@H](N)C[C@@H]2N)[C@H](O)[C@@H](O)[C@@H]1O [kanamycin] | > 3 | –
C[C@@H](O)[C@H]1C(=O)N2C(C(=O)O)=C(S[C@@H]3CN[C@H](C(=O)N(C)C)C3)[C@H](C)[C@H]12 [meropenem] | – | 4
